{"source": "patent US8575116B1", "about": "“Polyacetylenic compounds for protecting against pancreatic islet atrophy” (Academia Sinica, priority 2010, dated 2013)", "key": {"PKCα": {"test_system": "PKCα", "assay": "PKCα translocation and phosphorylation (Western blot) in RIN-m5F cells", "type": "cell-based, rat", "settings": "PMA 1 μM, glucose 16.7 mM", "method": "FIGS. 5A-D show the effects of cytopiloyne on calcium mobilization, DAG generation and PKCa activation. (A) After Fura 2-AM loading, RIN-m5F cells were stimulated with 16.7 mM glucose (HG) and cytopiloyne at 7, 14 and 28 μM. Level of intracellular calcium, as shown by the 340/380 nm ratio, was detected using a fluorescence spectrophotometer. (B) RIN-m5F cells were pulsed with ^3H-myristic acid (5 Cim1^−1) for 16 hours. After washing, the cells were stimulated with glucose, cytopiloyne, PMA and glimepiride. Total lipids were separated on a silica thin layer plate. DAG and cholesterol were visualized with iodine vapor and identified by their standards. (C) RIN-m5F cells were incubated with vehicle (Mock), cytopiloyne (CP, 3, 7 and 14 μM), PMA (1 μM) and 16.7 mM (HG). Membrane or cytosolic proteins were subjected to Western blot with anti-PKCα and anti-Actin antibodies. (D) RIN-m5F cells were incubated with vehicle (Mock), cytopiloyne (CP 7 μM) and PMA (1 μM). After lysis, total lystaes were subjected to Western blot with anti-PKCα, anti-phospho-PKCα and anti-Actin antibodies."}, "db/db mice": {"test_system": "db/db mice", "assay": "Prophylaxis of diabetes in diabetes-free db/db mice", "type": "in vivo, mouse", "settings": "0.5 mgkg^−1 daily for 4 weeks, diabetes-free db/db mice aged 4 weeks", "method": "FIGS. 2A-B show the prophylactic effect of cytopiloyne in db/db mice. […] Postprandial blood glucose levels in these mice were measured. (B) Blood insulin levels from the mice of […] were measured. Results from 3 independent experiments are expressed as mean±SEM, and P<0.05 was considered to be statistically significant (*).\nAfter 0.5 h, the levels of postprandial blood sugar and insulin from the mice were monitored for additional 4 h. For continued administration, diabetic db/db males were grouped and tube-fed with vehicle, cytopiloyne (0.5 or 2.5 mgkg^−1 day^−1) or glimepiride (2.5 mg kg^−1 day^−1) for the indicated time, while levels of blood sugar, insulin, and glycosylated HbA1c, and glucose tolerance in these mice were determined. To evaluate the prophylaxis of diabetes, diabetes-free db/db mice at 4 weeks of age were tube-fed with vehicle or cytopiloyne (CP, 0.5 mgkg^−1), once a day, for 4 weeks. Unless indicated otherwise, the mice were fasted for 16 h, then Postprandial blood glucose and insulin in these mice were measured."}, "STZ-treated C57BL mice": {"test_system": "STZ-treated C57BL mice", "assay": "Blood glucose in STZ-treated (β-cell-depleted) C57BL mice", "type": "in vivo, mouse", "settings": "cytopiloyne oral 0.1, 0.5 and 2.5 mgkg^−1; insulin i.p. 2.5 IUkg^−1", "method": "FIGS. 3A-C show cytopiloyne-mediated insulin release depends on pancreatic islet cells. (A) Rat pancreatic islet cells were incubated with glucose-free KRB buffer containing vehicle or cytopiloyne at 1.5, 3, 7, 14, 28 and 42 μM (FIG. 3A-i). Similarly, rat pancreatic islet cells were incubated with KRB buffer containing vehicle, glimepiride (GLM, 10 μM) or cytopiloyne at 1.5, 3, 7, 14, 28 and 42 μM in the presence of 3.3 mM glucose (LG, FIG. 3A-ii) or 16.7 mM glucose (HG, FIG. 3A-iii). The insulin levels were determined using an insulin ELISA kit. The data presented as mean±SEM of 3 independent experiments. (B) Fed C57BL mice, which had already received an injection of STZ, were administered with an oral dose of vehicle, cytopiloyne (CP, 0.1, 0.5 and 2.5 mgkg^−1), and an intraperitoneal injection of insulin (Ins, 2.5 IUkg^−1). Blood sugar levels in the STZ-treated mice were determined using a glucometer. […] Blood sugar levels in the STZ-treated mice were determined using a glucometer. All the results from 3 independent experiments are expressed as mean±SEM, and P<0.05 was considered to be statistically significant (*). […]\nTo deplete pancreatic β-cells in mice, 6-week-old C57BL females (NLAC, Taipei, Taiwan) were intraperitoneally injected with STZ at 200 mgkg^−1. […] Blood glucose levels were monitored for 4 h. […] Blood glucose levels in the mice were monitored from 0 to 4 h after insulin injection."}, "[1]": {"test_system": "rat pancreatic islet cells", "assay": "Intracellular staining for insulin and FACS in rat pancreatic islet cells", "type": "cell-based", "settings": "28 μM, brefeldin A, 24 h", "method": "FIGS. 4A-C show an increase in insulin mRNA and protein content by cytopiloyne in pancreatic islet cells. (A) HIT-T15 β-cells transfected with phINS-Luc and pRL-TK plasmids were incubated with vehicle (NS), glimepiride (GLM, 10 μM), high glucose (HG, 16.7 mM) or cytopiloyne at 7, 14 or 28 μM. Ten μg of cell lysates from these cells underwent to dual luciferase assays. […] (C) Rat pancreatic islet cells were treated with vehicle, glucose (3.3 mM (LG) or 16.7 mM (HG)) or cytopiloyne (CP, 7, 14 and 28 μM) in the presence of brefeldin A for 24 h. After anti-insulin antibody staining, these cells underwent FACS analysis. The percentage of insulin-positive β-cells is shown. All the results from 3 independent experiments are expressed as mean±SEM, and P<0.05 was considered to be statistically significant (*).\nThe islets were disrupted into individual cells and underwent intracellular staining with anti-insulin antibody and FACS analysis."}, "3T3-L1 cells": {"test_system": "3T3-L1 cells", "type": "cell-based, mouse", "settings": "differentiating 3T3-L1 cells; glimepiride 10 μM, rosiglitazone 1 μM, cytopiloyne 50 μM"}}, "data": [{"smiles": "CC#CC#CC#CC#CCCC(CO)O[C@@H]1O[C@H](CO)[C@@H](O)[C@H](O)[C@H]1O", "note": "(stereo partly drawn) [cytopiloyne, 2-β-D-glucopyranosyloxy-1-hydroxytrideca-5,7,9,11-tetrayne]", "values": [{"measurement": "phosphorylation of PKCα", "setting": "PKCα; cytopiloyne 7 μM", "result": "increased phosphorylation of PKCα"}, {"measurement": "translocation of PKCα from cytoplasm to membrane", "setting": "PKCα; cytopiloyne 3, 7 and 14 μM", "result": "It was the case"}, {"measurement": "blood sugar control in prophylactic treatment", "setting": "db/db mice", "result": "control blood sugar in these mice much better than the control"}, {"measurement": "prevention of T2D", "setting": "db/db mice", "result": "failed to prevent the disease"}, {"measurement": "reduction of hyperglycemia / blood glucose in β-cell-depleted mice", "setting": "STZ-treated C57BL mice", "result": "lost its ability in regulating both responses"}, {"measurement": "intracellular insulin levels compared to the vehicle treatment", "setting": "[1]", "result": "fivefold"}, {"measurement": "lipid accumulation (lipid droplets, Oil red O)", "setting": "3T3-L1 cells", "result": "same basal level of lipid droplets as the control"}]}]}
